Measured values as given in ChEMBL document CHEMBL1143404, “New plasmid-mediated fluoroquinolone efflux pump, QepA, found in an Escherichia coli clinical isolate” (2007).
≈ marks a conversion by molar mass, not a printed value. Calls of active or inactive are those of the source. No cut-off for these calls is given here.

How the values were obtained:
Escherichia coli [1] = test: Antimicrobial activity against multidrug-resistant Escherichia coli C316 pHPA containing mutated GyrA gene by agar dilution method; format: functional
Escherichia coli [2] = test: Antimicrobial activity against Escherichia coli KAM32 pHPA containing mutated GyrA gene by agar dilution method; format: functional
Escherichia coli [3] = test: Antimicrobial activity against Escherichia coli KAM32 expressing deltaacrB ydhE hsd gene by agar dilution method; format: functional
Escherichia coli [4] = test: Antimicrobial activity against Escherichia coli KAM32 pSTV28 containing chloramphenicol-resistant vector by agar dilution method; format: functional
Escherichia coli [5] = test: Antimicrobial activity against Escherichia coli KAM32 pSTVqepA containing qepA gene ligated to pSTV28 plasmid by agar dilution method; format: functional
Escherichia coli [6] = test: Antimicrobial activity against Escherichia coli KAM32 pSTVdeltaqepA containing disrupted qepA gene by agar dilution method; format: functional
Escherichia coli [7] = test: Ratio of MIC for Escherichia coli KAM32 pSTVqepA mutant to MIC for Escherichia coli KAM32 pSTV28 mutant; format: functional
[8] = molecular target: T1, Plasmid efflux fluoroquinolone (Escherichia coli) (UniProt A5H8A5); test: Inhibition of qepA-mediated drug efflux in Escherichia coli KAM32 assessed as increase in accumulation of Norfloxacin by fluorescence spectroscopy
T1 sequence (whole entry): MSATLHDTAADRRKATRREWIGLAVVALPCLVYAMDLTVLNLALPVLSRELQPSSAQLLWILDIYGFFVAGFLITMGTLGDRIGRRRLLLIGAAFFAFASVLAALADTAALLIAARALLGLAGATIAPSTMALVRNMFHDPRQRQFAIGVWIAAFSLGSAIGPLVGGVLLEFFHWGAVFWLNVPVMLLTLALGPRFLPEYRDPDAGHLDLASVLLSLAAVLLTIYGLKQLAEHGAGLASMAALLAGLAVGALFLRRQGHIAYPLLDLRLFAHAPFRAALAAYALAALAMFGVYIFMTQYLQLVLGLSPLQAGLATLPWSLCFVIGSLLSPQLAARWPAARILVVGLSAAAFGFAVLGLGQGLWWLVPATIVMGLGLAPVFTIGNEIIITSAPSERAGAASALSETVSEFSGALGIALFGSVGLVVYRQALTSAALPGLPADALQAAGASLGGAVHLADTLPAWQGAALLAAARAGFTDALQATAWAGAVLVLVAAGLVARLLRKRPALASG

Structure (SMILES)	MIC (Escherichia coli [1]) [µg/mL]	MIC (Escherichia coli [2]) [µg/mL]	MIC (Escherichia coli [3]) [µg/mL]	MIC (Escherichia coli [4]) [µg/mL]	MIC (Escherichia coli [5]) [µg/mL]	MIC (Escherichia coli [6]) [µg/mL]	Ratio (Escherichia coli [7])	Activity [8]
CC1(C)S[C@@H]2[C@H](NC(=O)[C@H](N)c3ccccc3)C(=O)N2[C@H]1C(=O)O [AMPICILLIN]	> 128	> 128	–	–	–	–	–	–
N#CC(C#N)=NNc1cccc(Cl)c1 [CARBONYL CYANIDE M-CHLOROPHENYLHYDRAZONE]	16 (≈ 78.2 µM)	16 (≈ 78.2 µM)	16 (≈ 78.2 µM)	16 (≈ 78.2 µM)	16 (≈ 78.2 µM)	16 (≈ 78.2 µM)	1	Active
O=C(O)c1cn(C2CC2)c2cc(N3CCNCC3)c(F)cc2c1=O [CIPROFLOXACIN]	> 128	0.064 (≈ 0.193 µM)	–	–	–	–	–	–
C[C@H](CCC(=O)O)[C@H]1CC[C@H]2[C@@H]3CC[C@@H]4C[C@H](O)CC[C@]4(C)[C@H]3C[C@H](O)[C@]12C [DEOXYCHOLIC ACID]	> 1020	512 (≈ 1300 µM)	1020 (≈ 2610 µM)	512 (≈ 1300 µM)	512 (≈ 1300 µM)	512 (≈ 1300 µM)	1	–
CCN1CCN(c2cc3c(cc2F)c(=O)c(C(=O)O)cn3C2CC2)CC1 [ENROFLOXACIN]	> 128	0.25 (≈ 0.696 µM)	0.008 (≈ 0.0223 µM)	0.008 (≈ 0.0223 µM)	0.25 (≈ 0.696 µM)	0.008 (≈ 0.0223 µM)	32	–
CC[C@H]1OC(=O)[C@H](C)[C@@H](O[C@H]2C[C@@](C)(OC)[C@@H](O)[C@H](C)O2)[C@H](C)[C@@H](O[C@@H]2O[C@H](C)C[C@H](N(C)C)[C@H]2O)[C@](C)(O)C[C@@H](C)C(=O)[C@H](C)[C@@H](O)[C@]1(C)O [ERYTHROMYCIN]	> 128	> 128	2 (≈ 2.73 µM)	1 (≈ 1.36 µM)	2 (≈ 2.73 µM)	1 (≈ 1.36 µM)	2	–
C[n+]1c2cc(N)ccc2cc2ccc(N)cc21.[Cl-] [EUFLAVINE]	> 128	4	2	2	4	2	2	–
COc1c(N2CCNC(C)C2)c(F)cc2c(=O)c(C(=O)O)cn(C3CC3)c12 (stereo not given) [GATIFLOXACIN]	32 (≈ 85.2 µM)	0.016 (≈ 0.0426 µM)	0.004 (≈ 0.0107 µM)	0.002 (≈ 0.00533 µM)	0.016 (≈ 0.0426 µM)	0.004 (≈ 0.0107 µM)	8	–
CN(C)c1ccc(C(=C2C=CC(=[N+](C)C)C=C2)c2ccc(N(C)C)cc2)cc1.[Cl-] [GENTIAN VIOLET]	16	2	2	2	2	2	1	–
CC[n+]1c(-c2ccccc2)c2cc(N)ccc2c2ccc(N)cc21.[Br-] [HOMIDIUM BROMIDE]	> 128	8	4	4	8	4	2	–
NC[C@H]1O[C@H](O[C@H]2[C@H](O)[C@@H](O[C@H]3O[C@H](CO)[C@@H](O)[C@H](N)[C@H]3O)[C@H](N)C[C@@H]2N)[C@H](O)[C@@H](O)[C@@H]1O [KANAMYCIN]	> 128	> 128	1 (≈ 2.06 µM)	1 (≈ 2.06 µM)	1 (≈ 2.06 µM)	128 (≈ 264 µM)	1	–
C[C@H]1COc2c(N3CCN(C)CC3)c(F)cc3c(=O)c(C(=O)O)cn1c23.C[C@H]1COc2c(N3CCN(C)CC3)c(F)cc3c(=O)c(C(=O)O)cn1c23.O [LEVOFLOXACIN]	32	–	–	0.004	–	0.004	–	–
CCn1cc(C(=O)O)c(=O)c2cc(F)c(N3CCNC(C)C3)c(F)c21 (stereo not given) [LOMEFLOXACIN]	> 128	0.064 (≈ 0.182 µM)	0.032 (≈ 0.0911 µM)	0.032 (≈ 0.0911 µM)	0.064 (≈ 0.182 µM)	0.032 (≈ 0.0911 µM)	2	–
COc1c(N2C[C@@H]3CCCN[C@@H]3C2)c(F)cc2c(=O)c(C(=O)O)cn(C3CC3)c12 [MOXIFLOXACIN]	32 (≈ 79.7 µM)	0.016 (≈ 0.0399 µM)	0.002 (≈ 0.00498 µM)	0.002 (≈ 0.00498 µM)	0.016 (≈ 0.0399 µM)	0.002 (≈ 0.00498 µM)	8	–
CCn1cc(C(=O)O)c(=O)c2ccc(C)nc21 [NALIDIXIC ACID]	> 128	1 (≈ 4.31 µM)	1 (≈ 4.31 µM)	1 (≈ 4.31 µM)	2 (≈ 8.61 µM)	1 (≈ 4.31 µM)	2	–
CCn1cc(C(=O)O)c(=O)c2cc(F)c(N3CCNCC3)cc21 [NORFLOXACIN]	> 128	0.25 (≈ 0.783 µM)	0.016 (≈ 0.0501 µM)	0.016 (≈ 0.0501 µM)	1 (≈ 3.13 µM)	0.016 (≈ 0.0501 µM)	64	–
C[C@H]1COc2c(C3(N)CC3)c(F)cc3c(=O)c(C(=O)O)cn1c23 [PAZUFLOXACIN]	16 (≈ 50.3 µM)	0.016 (≈ 0.0503 µM)	0.004 (≈ 0.0126 µM)	0.004 (≈ 0.0126 µM)	0.016 (≈ 0.0503 µM)	0.004 (≈ 0.0126 µM)	4	–
CC/N=c1\cc2oc3cc(NCC)c(C)cc3c(-c3ccccc3C(=O)OCC)c-2cc1C.Cl [RHODAMINE 6G HYDROCHLORIDE]	> 128	4	4	4	4	4	1	–
CCCCCCCCCCCCOS(=O)(=O)[O-].[Na+] [SODIUM LAURYL SULFATE]	–	128	128	128	128	> 128	1	–
C[C@@H]1CN(c2c(F)c(N)c3c(=O)c(C(=O)O)cn(C4CC4)c3c2F)C[C@H](C)N1 [SPARFLOXACIN]	16 (≈ 40.8 µM)	0.002 (≈ 0.0051 µM)	0.001 (≈ 0.00255 µM)	0.001 (≈ 0.00255 µM)	0.002 (≈ 0.0051 µM)	0.001 (≈ 0.00255 µM)	2	–
CN(C)[C@@H]1C(O)=C(C(N)=O)C(=O)[C@@]2(O)C(O)=C3C(=O)c4c(O)cccc4[C@@](C)(O)[C@H]3C[C@@H]12 [TETRACYCLINE]	> 128	0.25 (≈ 0.563 µM)	0.25 (≈ 0.563 µM)	0.25 (≈ 0.563 µM)	0.25 (≈ 0.563 µM)	0.125 (≈ 0.281 µM)	1	–
NC1CCN(c2nc3c(cc2F)c(=O)c(C(=O)O)cn3-c2ccc(F)cc2F)C1 (stereo not given) [TOSUFLOXACIN]	> 128	0.032 (≈ 0.0791 µM)	0.002 (≈ 0.00495 µM)	0.002 (≈ 0.00495 µM)	0.032 (≈ 0.0791 µM)	0.002 (≈ 0.00495 µM)	16	–
